Test results from patent US4414206A, “Animal feeds” (Bristol-Myers Company, priority 1982, dated 1983).
“Also recorded” adds a separate entry of the source.

What was measured:
Male broiler chickens = experiment: Four week growth and feed efficiency study in broiler chicks fed amphomycin-supplemented feed; assay type: in vivo, chickens (Hubbard breeder pullet×White Mountain males)
Description: The efficacy of amphomycin in promoting growth and improving the feed efficiency of broiler chicks is illustrated below.
In this example a basal diet was employed containing the following ingredients:
Male broiler chickens (Hubbard breeder pullet×White Mountain males) were used as the test animal. They were housed in electrically heated, metal battery brooders equipped with raised wire-screen floors. […] The room and battery units were left unclean from a previous test that terminated before the chicks were started. Drinking water for the test came from overflow water from a laying cage operation. The water was collected in garbage cans and was allowed to stand overnight to permit particulate matter to settle out. The birds were vaccinated at 7 days of age for Newcastle, Bronchitis and Marek's. The feed trays were fitted with wire screens riding on top of the feed to minimize feed wastage. Feed and water were fed ad libitum. Four groups of ten birds each, chosen on the basis of hatching body weight, were fed the experimental diet for a four week test period and four groups were fed the control diet. The groups of birds and diets were placed in the batteries on the basis of position chosen from tables of random numbers. The birds and the feed were group weighed on a weekly basis. The test was terminated at four weeks of age.
The control diet was prepared as follows:
The experimental diet (for amphomycin concentration
of 4 grams/ton) was prepared as follows:
*calculated for both groups at 800 grams body weight from feed efficiency

rumen fermentation = experiment: Artificial rumen test (in vitro rumen fermentation); conditions: for Cellulose digested (%) / Methane produced (cc) / Propionate produced / Total calories digested (Calories) / Caloric efficiency: mean ± one standard deviation, three observations; for Caloric efficiency: formula in drawing 1
Description: A standard in vitro method for determining compounds which stimulate propionate production during rumen fermentation is the artificial rumen method described in U.S. Pat. No. 3,794,732. […] This property in ruminants is presumably in addition to the previously-described feed-utilization efficiency promoting activity of amphomycin in monogastric animals which involves a different mechanism of action.
Amphomycin was evaluated at doses of 0.025, 0.1 and 0.5 mg per incubation (25 ml. inoculum--artificial saliva with cellulose, starch and urea as nutrients) according to the general procedure of Example 5 of U.S. Pat. No. 3,794,732.
^a Results reported as mean ± one standard deviation. Controls
^b Reported as a percent of total volatile fatty acid calories

[1] = 4 grams/ton amphomycin in feed, versus control group
[2] = broiler chickens, about 4 to 12 grams per ton of feed, on average
[3] = 0.025, 0.1 and 0.5 mg per incubation

**Q.** amphomycin was tested. Which “Body weights in grams at 4 weeks of age” value (Male broiler chickens; 4 grams/ton amphomycin in feed, ad libitum, four week test, male broiler chickens) did it give?
**A.** 817.5 grams

**Q.** And the “Improvement in feed efficiency” value (Male broiler chickens; [1])?
**A.** 4.07%

**Q.** And the “Percentage increase in weight at end of 4 weeks” value (Male broiler chickens; [1])?
**A.** 6.21%

**Q.** What about the “Feed efficiency calculated as consumption in grams ÷ average body weight in grams” value (Male broiler chickens; 4 grams/ton amphomycin in feed, calculated at 800 grams body weight from feed efficiency curve) of the same substance?
**A.** 1.480

**Q.** What about the “less total feed consumed than comparable chickens fed same diet without amphomycin” value (Male broiler chickens; [2]) of the same substance?
**A.** 3%

**Q.** And the “more weight gained than comparable chickens fed same diet without amphomycin” value (Male broiler chickens; [2])?
**A.** about 3%

**Q.** What about the Urease activity (rumen fermentation; 0.025 mg/tube) of the same substance?
**A.** 90 % of control

**Q.** And the “Cellulose digested (%)” value (rumen fermentation; 0.025 mg/tube)?
**A.** 64.9 ± 2.1%

**Q.** What about the “Methane produced (cc)” value (rumen fermentation; 0.025 mg/tube) of the same substance?
**A.** 2.88 ± 0.47 cc

**Q.** And the Propionate produced (rumen fermentation; 0.025 mg/tube)?
**A.** 58.9 ± 0.9% of total volatile fatt

**Q.** And the “Total calories digested (Calories)” value (rumen fermentation; 0.025 mg/tube)?
**A.** 1108 ± 22 Calories

**Q.** And the Caloric efficiency (rumen fermentation; 0.025 mg/tube)?
**A.** 62.1 ± 4.5

**Q.** And the Urease activity (rumen fermentation; 0.1 mg/tube)?
**A.** 84 % of control

**Q.** And the “Cellulose digested (%)” value (rumen fermentation; 0.1 mg/tube)?
**A.** 64.0 ± 2.4%

**Q.** What about the “Methane produced (cc)” value (rumen fermentation; 0.1 mg/tube) of the same substance?
**A.** 2.53 ± 0.20 cc

**Q.** What about the Propionate produced (rumen fermentation; 0.1 mg/tube) of the same substance?
**A.** 62.1 ± 1.7% of total volatile fatt

**Q.** What about the “Total calories digested (Calories)” value (rumen fermentation; 0.1 mg/tube) of the same substance?
**A.** 1098 ± 26 Calories

**Q.** What about the Caloric efficiency (rumen fermentation; 0.1 mg/tube) of the same substance?
**A.** 68.9 ± 10.0

**Q.** And the Urease activity (rumen fermentation; 0.5 mg/tube)?
**A.** 60 % of control

**Q.** And the “Cellulose digested (%)” value (rumen fermentation; 0.5 mg/tube)?
**A.** 57.5 ± 4.0%

**Q.** What about the “Methane produced (cc)” value (rumen fermentation; 0.5 mg/tube) of the same substance?
**A.** 1.27 ± 0.07 cc

**Q.** What about the Propionate produced (rumen fermentation; 0.5 mg/tube) of the same substance?
**A.** 67.1 ± 4.7% of total volatile fatt

**Q.** And the “Total calories digested (Calories)” value (rumen fermentation; 0.5 mg/tube)?
**A.** 1029 ± 43 Calories

**Q.** And the Caloric efficiency (rumen fermentation; 0.5 mg/tube)?
**A.** 65.5 ± 16.8

**Q.** And the “cellulase / cellulolysis (cellulose digestion) (in words)” value (rumen fermentation; [3])?
**A.** did not significantly inhibit; also recorded: decreases slightly; also recorded: does not significantly inhibit

**Q.** And the “methane production (in words)” value (rumen fermentation; [3])?
**A.** significantly inhibits; also recorded: decreases significantly

**Q.** And the “propionate production (in words)” value (rumen fermentation; [3])?
**A.** significantly increase; also recorded: increases significantly

**Q.** And the “total calories digested (in words)” value (rumen fermentation; [3])?
**A.** did not significantly inhibit cellulase or significantly affect total calories digested

**Q.** What about the “dose that appears to be the most efficacious” value (rumen fermentation; 25 ml. inoculum per incubation) of the same substance?
**A.** 0.1 mg. per incubation

**Q.** What about the “acetate and butyrate production (in words)” value (rumen fermentation; as the dose increases) of the same substance?
**A.** decreases
